Laboratory results: patent publication US11846630B2, “Coordinately-ordered single cells with individual identities for high-throughput assay” (Northeastern University, priority 2019, dated 2023)

Legend:
HeLa cells = assay: ROS assay (CellROX Orange) on coordinated single cell pattern; conditions: 1 μM doxorubicin for 6 hours
OT-1 cells = assay: Microwell ELISA immunoassay of interferon-γ secreted by peptide-stimulated OT-1 cells; format: cell-based; conditions: OVA peptide concentration 0.5, 1, 2, 4, 8 μg/mL; FIG. 12, panel C
Source text: Surface of the microwells can be chemically modified with capture agents, such as antibodies, to detect cytokines secreted by T cells during the T cell-cancer cells interaction. […] The cytokine detection is based on ELISA sandwich structure and quantified based on the fluorescence intensity of Avidin Texas red. Due to the existence of BSA on the top layer, the majority of antibodies were only absorbed on the inner surface of the microwells (bottom and inside wall of microwell), which enhanced capturing signals and reduced background. The location of the capture antibody after BSA saturation was indicated using Rhodamine-BSA and FITC-Antibody and shown in FIG. 11, panel B, in which BSA only covered the top layer of microwell and the green fluorescent capture antibody was mainly present inside the microwells after BSA saturation, enhancing the signals from the microwells. The fluorescence images of interferon-γ at two concentrations are shown in FIG. 11, panel C, and the standard curve of fluorescence versus interferon-γ concentration is presented in FIG. 11, panel D. According to the standard curve, imaged-based ELISA using the microwells detected a wide range of the cytokine concentrations from 0.1 ng/mL to 5 ng/mL, and the concentrations determined based on fluorescence intensity ranged from 0.8×10^5 to 2.7×10^5. […]

| Molecule | ROS orange signal intensity after subsequent X-ray exposure (HeLa cells; then X-ray 10.8 Gy, compared with doxorubicin alone) | ROS orange signal (HeLa cells; identical cell analysis, FIG. 3) | intensity of the interferon-γ fluorescence (OT-1 cells) |
| --- | --- | --- | --- |
| COc1cccc2c1C(=O)c1c(O)c3c(c(O)c1C2=O)C[C@@](O)(C(=O)CO)C[C@@H]3O[C@H]1C[C@H](N)[C@H](O)[C@H](C)O1 [doxorubicin] | much higher level of damage than that of doxorubicin alone | increases | – |
| SINFEKL [OVA peptide, OVA peptide (SINFEKL) used to stimulate OT-1 cells to secrete cytokines] | – | – | increased |
